Earlier results as cited in patent US20100120050A1, “Biomarkers For Assessing Altherosclerotic Potential” (ENTELOS, INC., priority 2008, published 2010).

Details: clinical trials and post-marketing; cited from earlier work

Cc1c(C(=O)NN2CCCCC2)nn(-c2ccc(Cl)cc2Cl)c1-c1ccc(Cl)cc1 [rimonabant]
effect on plaque endpoints: little observed effect on plaque endpoints
